This is an account of results in publication PMC7934871 (JCI Insight, 2021).

For the test, the system named is HCT116 xenograft tumors. Kind of test: HCT116 xenograft in NSG mice, systemic (i.v.) treatment. Format: in vivo, mouse. How it is done:
(A) Growth kinetics of HCT116 tumors in NSG mice systemically treated with acet.-STAT3 peptides (1 mg/kg), with or without PS oligonucleotide conjugation, every other day (n = 5). SD is shown. Two-way ANOVA (Tukey’s multiple comparisons test) was used for analyzing the kinetics of tumor growth over the treatment period; ****P < 0.001. […] Lower 2 panels show input total STAT3 protein. […] Penetration of FAM-labeled PS-acet.-STAT3 peptide into tumors was also assessed by immunostaining followed by confocal imaging (second panel from top). The images are representative of 5 tumors per experimental group in A. Scale bars: 50 μm. Insets: original magnification, ×20. The graphs show the quantification for FAM and Ki-67 expression levels and of the mean vessel diameter (data include 5 fields of view per group). SD is shown. One-way ANOVA; ****P < 0.001; ***P < 0.005.
Mouse care and experimental procedures were performed under pathogen-free conditions in accordance with established institutional guidance and approved IACUC protocols from Research Animal Care Committee of the City of Hope. For s.c. tumor challenge, 5 × 10^6 HCT116 cells were injected into NSG mice from The Jackson Laboratory or animal resource core facility at the City of Hope. After tumors reached an average size of 80~100 mm^3, mice were locally or intravenously treated with 1 mg/kg of PO- or PS-peptides (Anaspec) every day or every other day. Control animals were treated with the equal volume of HBSS (Invitrogen, Thermo Fisher Scientific). Tumor growth was measured by a digital caliper every other day. To study the effects of the modified peptides at protein and gene levels, mice were euthanized 4–6 weeks after tumor injection. B16 melanoma lung metastasis was performed by injecting 0.5 × 10^6 B16 cells into bloodstream of C57BL/6 mice (The Jackson Laboratory). One day after tumor challenge, mice were treated intravenously (retro-orbitally) with 1 mg/kg of PO- or PS-acet.-STAT3, PS-unacet.-STAT3, or PS-STAT3-K685R peptides every other day until the endpoint as indicated. Control mice were treated with HBSS. Lungs were excised from the mice, and B16 nodules were visualized by gp100 staining. Lungs were then analyzed for immune responses by immunostaining followed by confocal imaging. For mouse PDAC model, 5 × 10^6 KPC mouse cells were mixed with Matrigel and subcutaneously injected into C57BL/6 mice (The Jackson Laboratory). […] Control animals were treated with the equal volume of HBSS (Invitrogen, Thermo Fisher Scientific). Tumor growth was measured by a digital caliper every other day. To study the effects of the modified peptides at protein and gene levels, mice were euthanized at the endpoint as indicated.

On to “PDIPKEEAFGK685(Ac)YCRPESQEHPC-linker-T*C*C*A*T*G*A*G*C*T*T*C*C*T*G*A*T*G*C*T [PS-acet.-STAT3 peptide]”, for which the tumor growth entry (HCT116 s.c. in NSG mice, 1 mg/kg i.v. every other day, n = 5) was “significantly reduced”. Further, the “STAT3 activation in tumor xenografts” value (HCT116 tumor tissues, immunoprecipitation and Western blotting) is given as “downregulated”. In addition, for the setting “HCT116 xenograft”, the “cell death in tumor sections (H&E staining)” value is given as “massive cell death”. Also, the “cell proliferation marker Ki-67 and tumor angiogenesis marker CD31 in tumor tissues” value (HCT116 xenograft, IF and confocal) is reported as “significant reduction”. The “proapoptotic genes (TP53, CASP9) in tumor tissues” value (HCT116 xenograft, qRT-PCR) is “significantly upregulated”. Moreover, for the setting “HCT116 xenograft, qRT-PCR and Western blotting”, the “expression of STAT3 target genes MMP-9 (MMP9) and BCL-XL (BCL2L1) in tumors” value is reported as “significantly reduced”.
